Measurements taken from patent publication US11753408B2, “Compounds and method for blocking transmission of malarial parasite” (The United States of America, as represented by the …, priority 2016, dated 2023).

Legend:
PAMPA permeability = assay type: in vitro ADME
[1] = system: Stage III-V gametocytes (blood stage P. falciparum parasites); assay: In vitro drug activity on gametocytes (AlamarBlue viability assay); assay type: cell-based, Plasmodium falciparum; conditions: read-out: Gametocyte EC50
Procedure, shortened: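 Viability was measured by AlamarBlue fluorescence (Ex 525/Em 598 nm) after 24 h dye incubation following 72 h compound exposure at 37° C, 5% CO2. Gametocytes, stage III–V from strains 3D7, HB3 and Dd2, were NAG/Percoll-enriched and plated at 20,000 cells/well.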

Solubility at pH 7.4 = assay type: physicochemical
[2] = system: Asexual parasites of P. falciparum strain 3D7; assay: In vitro drug activity on asexual parasites (SYBR Green assay); assay type: cell-based, Plasmodium falciparum
Procedure, shortened: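 SYBR Green I fluorescence (ex 490, em 520 nm) was read after freeze-thaw lysis and 30 min staining at room temperature. Before that, drug-treated cultures (0.5% parasitemia, 2% hematocrit, DMSO ≤0.5%) were incubated 72 h, in duplicate.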

[3] = Microsomal stability (rat); assay type: in vitro ADME; conditions: rat microsomes
mTOR = mTOR (Homo sapiens, UniProt P42345); assay: mTOR activity (no method described); assay type: biochemical

SMILES	PAMPA Permeability (PAMPA permeability) [×10⁻⁶ cm/s]	EC50 [1] [nM]	Sol @ pH 7.4 (Solubility at pH 7.4) [ug/mL]	EC50 [2] [nM]	Microsomal Stability (rat) T1/2 [3] [min]	mTOR (mTOR)
O=C(c1ccc(-n2c(=O)ccc3cnc4ccc(-c5cccc(O)c5)cc4c32)cc1)N1CCOCC1 [Compound 128]	735	31.4	1.5	6.05	12.7	0.3106 µM
CN(C)Cc1ccc(-c2ccc3ncc4c(c3c2)n(-c2cccc(C#N)c2)c(=O)n4C)cc1 [Compound 436]	767	1970	52.9	892	>30.0	12.45 µM
O=C(c1ccc(-n2c(=O)ccc3cnc4ccc(-c5ccc(Cl)cc5)cc4c32)cc1)N1CCNCC1 [Compound 103]	76.1	71.3	6.3	74.3	10.5	2.997 µM
O=C(NC1CC1)c1ccc(-n2c(=O)ccc3cnc4ccc(-c5ccc(Cl)cc5)cc4c32)cc1 [Compound 87]	33.1	139	2.6	24.4	>30.0	0.2411 µM
O=C(c1ccc(-n2c(=O)ccc3cnc4ccc(-c5ccc(Cl)c(C(=O)N6CCOCC6)c5)cc4c32)cc1)N1CCOCC1 [Compound 147]	109	18300	>90.0	4810	3.1	21.22 µM
CN(C)Cc1ccc(-c2ccc3ncc4ccc(=O)n(-c5ccc(C(=O)N6CCNCC6)cc5)c4c3c2)cc1 [Compound 167]	1.5	469	>76.0	223	>30.0	22.69 µM
CN(C)Cc1ccc(-c2ccc3ncc4ccc(=O)n(-c5ccc(C(=O)N(C)C)cc5)c4c3c2)cc1 [Compound 166]	427	179	>70.0	72.7	>30.0	8.762 µM
CN(C)Cc1ccc(-c2ccc3ncc4ccc(=O)n(-c5ccc(C(=O)N6CCOCC6)cc5)c4c3c2)cc1 [Compound 86]	459	212	61.6	177	>30.0	3.776 µM
CC(O)c1ccc(-c2ccc3ncc4c(c3c2)n(-c2cccc(C#N)c2)c(=O)n4C)cc1 (stereo not drawn) [Compound 443]	645	68.3	3.3	44.5	>30.0	0.3024 µM
Nc1cc(Cl)ccc1-c1ccc2ncc3ccc(=O)n(-c4ccc(C(=O)N5CCOCC5)cc4)c3c2c1 [Compound 136]	1290	733	8.6	94.5	7.8	3.591 µM
CN(C)Cc1ccc(-c2ccc3ncc4ccc(=O)n(-c5ccc(C(=O)NC6CC6)cc5)c4c3c2)cc1 [Compound 163]	232	246	>72.0	93.9	>30.0	6.497 µM
COc1cc(-c2ccc3ncc4ccc(=O)n(-c5ccc(C(=O)N6CCOCC6)cc5)c4c3c2)ccc1Cl [Compound 145]	363	266	<1.0	60.6	4.9	1.214 µM
O=C(NC1CC1c1ccccc1)c1ccc(-n2c(=O)ccc3cnc4ccc(-c5ccc(Cl)cc5)cc4c32)cc1 (stereo not drawn) [Compound 158]	< 2.4	3560	<1.0	1560	18.8	7.899 µM
N#Cc1cc(NC(=O)c2ccc(-n3c(=O)ccc4cnc5ccc(-c6ccc(Cl)cc6)cc5c43)cc2)ccc1F [Compound 133]	< 5.4	10100	<1.0	4000	>30.0	inactive
N#Cc1cc(-c2ccc3ncc4ccc(=O)n(-c5ccc(C(=O)N6CCOCC6)cc5)c4c3c2)ccc1Cl [Compound 153]	57.9	52.9	<1.0	127	9.4	18.36 µM
O=C(c1ccc(-n2c(=O)ccc3cnc4ccc(-c5ccc(CN6CCOCC6)cc5)cc4c32)cc1)N1CCOCC1 [Compound 185]	35.5	1140	3.4	352	15.1	50 µM
CN(C)Cc1ccc(-c2ccc3ncc4ccc(=O)n(-c5ccc(C(=O)N(CCO)CCO)cc5)c4c3c2)cc1 [Compound 160]	< 1	270	>79.0	96.1	>30.0	9.278 µM
Cn1c(=O)n(-c2cccc(C#N)c2)c2c3cc(-c4cccc(O)c4)ccc3ncc21 [Compound 444]	407	280	<1.0	106	12.8	0.4278 µM
CN1CC2CC1CN2C(=O)c1ccc(-n2c(=O)ccc3cnc4ccc(-c5ccc(Cl)cc5)cc4c32)cc1 (stereo not drawn) [Compound 140]	1390	272	>77.0	59.2	9.6	6.373 µM
Cn1c(=O)n(-c2cccc(C#N)c2)c2c3cc(-c4cccc(C#N)c4)ccc3ncc21 [Compound 401]	297	190	<1.0	86.7	>30.0	1.271 µM
CN(C)Cc1ccc(-c2ccc3ncc4ccc(=O)n(-c5ccc(C(=O)N6CCN(C)CC6)cc5)c4c3c2)cc1 [Compound 164]	238	809	>79.0	594	>30.0	40.42 µM
O=C(c1ccc(-n2c(=O)ccc3cnc4ccc(-c5ccc(Cl)cc5O)cc4c32)cc1)N1CCOCC1 [Compound 134]	142	256	<1.0	72.7	10.5	2.007 µM
Cc1cc(-c2ccc3ncc4ccc(=O)n(-c5ccc(C(=O)N6CCOCC6)cc5)c4c3c2)ccc1Cl [Compound 144]	1470	1760	<1.0	368	4.1	2.083 µM
NC1(c2ccc(-c3ccc4ncc5ccc(=O)n(-c6ccc(C(=O)N7CCOCC7)cc6)c5c4c3)cc2)CCC1 [Compound 181]	36.3	1920	17.3	1580	>30	0.8304 µM
